# Key:
# [1] = system: Smith-Magenis syndrome patients; conditions: evening exogenous melatonin with morning beta-adrenergic antagonists; cited from earlier work
# [2] = system: children with Smith-Magenis syndrome; experiment: Exploratory phase II clinical study in children with Smith-Magenis syndrome (actigraphy, Achenbach questionnaire); format: in vivo, human; conditions: agomelatine 1-5 mg/kg co-administered with acebutolol 10 mg/kg
# Experimental: An exploratory phase II study was carried out in children with Smith-Magenis syndrome. Agomelatine 1-5 mg/kg was co-administered with acebutolol 10 mg/kg, a […]. The main analysis criteria were actigraphy parameters recorded over five periods of 30 consecutive days, after 30 days of treatment, and 3, 5 and 15 months of treatment, and also the Achenbach questionnaire, allowing the behaviour disorders to be assessed.
# These major effects were carried over to the families, who, following the highly positive consequences of the treatment on family life, requested continuation of the treatment on a compassionate basis.
# patients = experiment: Clinical trials of agomelatine: acceptability, tolerability and drug interactions; format: in vivo, human
# Description: In fact, agomelatine makes it possible to act simultaneously on the behaviour disorders and on the resynchronisation of disturbed circadian rhythms.
# [3] = actigraphy, up to 15 months of treatment
Compound,activity in respect of the behaviour disorders [1],"behaviour (behaviour disorders, Achenbach questionnaire) [2]",clinical improvement found by a specialist [2],sleep quality recorded [2],"duration of daytime naps [2, 3]","duration of night waking [2, 3]","frequency of night waking [2, 3]","drug interactions (patients; human, in vivo)",clinical and biological tolerability (patients; more than 4000 patients exposed in clinical trials)
COc1ccc2[nH]cc(CCNC(C)=O)c2c1 [melatonin],no activity,–,–,–,–,–,–,–,–
"COc1ccc2cccc(CCNC(C)=O)c2c1 [agomelatine, N-[2-(7-methoxy-1-naphthyl)ethyl]acetamide]",–,Real progress in relation to behaviour,Major clinical improvement,"a calm, deep sleep, less-broken nights and less-early waking in the morning",reduction in the duration of daytime naps,reduction,reduction,no drug interactions,excellent clinical and biological tolerability

# Source: patent US20080132577A1, “Use of agomelatine in obtaining medicaments intended for the treatment of smith-magenis syndrome” (LES LABORATOIRES SERVIER, priority 2006, published 2008)
